molecular target: T1, hT1R1/hT1R3 umami receptor (Homo sapiens, UniProt Q7RTX0+Q7RTX1); test: In vitro hT1R1/hT1R3 umami taste receptor activation assay (FLIPR, dose response); format: cell-based; conditions: Table A, Umami Amides; read-out: Umami EC50
T1 construct: expressed in transfected cells; host or cells: HEK293 derivative stably expressing Gα15, clone I-17, expression induced with mifepristone
T1 sequence (Q7RTX1 21-841): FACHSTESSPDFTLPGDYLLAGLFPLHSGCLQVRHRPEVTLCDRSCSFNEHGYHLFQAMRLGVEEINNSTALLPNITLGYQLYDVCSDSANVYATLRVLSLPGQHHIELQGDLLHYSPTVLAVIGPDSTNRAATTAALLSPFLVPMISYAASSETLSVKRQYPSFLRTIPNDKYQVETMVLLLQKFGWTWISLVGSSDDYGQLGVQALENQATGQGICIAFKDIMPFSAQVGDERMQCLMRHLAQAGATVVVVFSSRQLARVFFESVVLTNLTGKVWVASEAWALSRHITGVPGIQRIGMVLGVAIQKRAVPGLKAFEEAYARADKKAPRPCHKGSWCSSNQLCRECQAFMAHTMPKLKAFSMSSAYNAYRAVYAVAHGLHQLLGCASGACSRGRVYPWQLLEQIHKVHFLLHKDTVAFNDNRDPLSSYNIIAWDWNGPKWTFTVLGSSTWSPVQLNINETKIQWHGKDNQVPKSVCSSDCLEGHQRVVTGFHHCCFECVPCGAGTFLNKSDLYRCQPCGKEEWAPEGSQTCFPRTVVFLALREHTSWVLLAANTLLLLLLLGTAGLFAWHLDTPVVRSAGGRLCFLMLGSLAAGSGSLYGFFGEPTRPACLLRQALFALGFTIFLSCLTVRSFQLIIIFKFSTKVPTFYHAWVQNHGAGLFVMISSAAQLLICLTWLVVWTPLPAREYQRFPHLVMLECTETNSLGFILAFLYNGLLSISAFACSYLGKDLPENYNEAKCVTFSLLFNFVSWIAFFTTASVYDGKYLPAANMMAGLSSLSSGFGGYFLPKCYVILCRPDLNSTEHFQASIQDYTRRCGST
T1 sequence (Q7RTX0 21-852): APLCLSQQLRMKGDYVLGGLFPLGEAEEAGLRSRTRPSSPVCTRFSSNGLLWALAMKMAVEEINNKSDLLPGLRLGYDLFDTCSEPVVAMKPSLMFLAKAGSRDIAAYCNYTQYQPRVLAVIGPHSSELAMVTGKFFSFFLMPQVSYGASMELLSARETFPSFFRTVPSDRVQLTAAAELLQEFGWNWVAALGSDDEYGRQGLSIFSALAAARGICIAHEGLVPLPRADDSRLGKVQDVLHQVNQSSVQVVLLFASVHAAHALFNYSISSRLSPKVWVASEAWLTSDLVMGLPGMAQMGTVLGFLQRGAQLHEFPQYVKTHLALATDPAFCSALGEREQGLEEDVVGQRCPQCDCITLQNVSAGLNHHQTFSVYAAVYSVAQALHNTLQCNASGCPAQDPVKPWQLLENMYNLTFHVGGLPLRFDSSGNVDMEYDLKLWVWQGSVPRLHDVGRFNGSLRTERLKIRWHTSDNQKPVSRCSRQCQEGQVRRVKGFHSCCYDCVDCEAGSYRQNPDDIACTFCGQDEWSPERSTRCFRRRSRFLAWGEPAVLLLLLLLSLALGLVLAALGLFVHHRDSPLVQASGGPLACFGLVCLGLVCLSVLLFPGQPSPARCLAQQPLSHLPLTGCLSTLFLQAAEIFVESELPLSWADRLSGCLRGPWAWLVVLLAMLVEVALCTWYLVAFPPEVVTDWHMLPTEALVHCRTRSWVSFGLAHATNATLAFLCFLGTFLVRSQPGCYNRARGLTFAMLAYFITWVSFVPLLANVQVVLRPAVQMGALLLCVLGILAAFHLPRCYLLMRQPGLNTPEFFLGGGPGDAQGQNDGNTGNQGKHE

| SMILES | EC50 [nM] |
| --- | --- |
| CCCC(CCC)C(=O)Nc1ccc2c(c1)OCO2 [Example A50, N-(benzo[d][1,3]dioxol-5-yl)-2-propylpentanamide] | 1570 |
| CCCC(CC)NC(=O)c1ccc2c(c1)OCO2 (centres unmarked) [Example A53, N-(hexan-3-yl)benzo[d][1,3]dioxole-5-carboxamide] | 1830 |
| CCCCC(NC(=O)c1ccc(OC)c(Cl)c1)C(=O)OC (centres unmarked) [Example A55, methyl 2-(3-chloro-4-methoxybenzamido)hexanoate] | 120 |
| CCCC(CC)NC(=O)c1ccc(C)c(C)c1 (centres unmarked) [Example A56, N-(hexan-3-yl)-3,4-imethylbenzamide] | 140 |
| CCCC(CCC)NC(=O)c1ccc(OC)c(C)c1 [Example A61, N-(heptan-4-yl)-4-methoxy-3-methylbenzamide] | 220 |
| COC(=O)[C@H](NC(=O)c1ccc(C)c(C)c1)C(C)C [Example A62, (R)-methyl 2-(3,4-dimethylbenzamido)-3-methylbutanoate] | 250 |
| CCOc1ccc(C(=O)NC(CC)CC)cc1C [Example A64, 4-ethoxy-3-methyl-N-(pentan-3-yl)benzamide] | 260 |
| COC[C@@H](CC(C)C)NC(=O)c1ccc(SC)c(C)c1 [Example A65, (R)-N-(1-methoxy-4-methylpentan-2-yl)-3-methyl-4-(methylthio)benzamide] | 290 |
| CCCC(CCC)NC(=O)c1ccc(OCC)cc1 [Example A68, 4-ethoxy-N-(heptan-4-yl)benzamide] | 320 |
| CCCC(CCC)NC(=O)c1cccc(C(F)(F)F)c1 [Example A70, N-(heptan-4-yl)-3-(trifluoromethyl)benzamide] | 330 |
| CCCC(CCC)NC(=O)c1ccc(CC)cc1 [Example A71, 4-ethyl-N-(heptan-4-yl)benzamide] | 340 |
| CCOc1ccc(C(=O)NC(CC)CC(C)C)cc1C (centres unmarked) [Example A72, 4-ethoxy-3-methyl-N-(5-methylhexan-3-yl)benzamide] | 340 |
| COC(=O)[C@@H](CC(C)C)NC(=O)c1ccc(C)c(OC)c1 [Example A73, (R)-methyl 2-(3-methoxy-4-methylbenzamido)-4-methylpentanoate] | 340 |
| CCCC(CCC)NC(=O)c1ccc(SC)cc1 [Example A75, N-(heptan-4-yl)-4-(methylthio)benzamide] | 390 |
| COc1ccc(C(=O)NC2CCCCC2C)cc1Cl (centres unmarked) [Example A77, 3-chloro-4-methoxy-N-(2-methylcyclohexyl)benzamide] | 440 |
| C=Cc1ccc(C(=O)NC(CCC)CCC)cc1 [Example A78, N-(heptan-4-yl)-4-vinylbenzamide] | 460 |
| CCCOc1ccc(C(=O)N[C@H](CC(C)C)C(=O)OC)cc1 [Example A82, (R)-methyl 4-methyl-2-(4-propoxybenzamido)pentanoate] | 510 |
| CCCC(CCC)NC(=O)c1cccc(C)c1 [Example A83, (heptan-4-yl)-3-methylbenzamide] | 520 |
| CCCC(CCC)NC(=O)c1cccc(OC)c1O [Example A84, N-(heptan-4-yl)-2-hydroxy-3-methoxybenzamide] | 530 |
| CSc1ccc(C(=O)NC(C(C)C)C(C)C)cc1C [Example A88, N-(2,4-dimethylpentan-3-yl)-3-methyl-4-(methylthio)benzamide] | 550 |
| CCCc1ccc(C(=O)N[C@H](CC(C)C)C(=O)OC)cc1 [Example A91, (R)-methyl 4-methyl-2-(4-propylbenzamido)pentanoate] | 620 |
| CCCC(CC(C)C)NC(=O)c1ccc(OCC)c(C)c1 (centres unmarked) [Example A92, 4-ethoxy-3-methyl-N-(2-methylheptan-4-yl)benzamide] | 650 |
| COC[C@H](NC(=O)c1ccc(OC)c(C)c1)c1ccccc1 [Example A94, (R)-4-methoxy-N-(2-methoxy-1-phenylethyl)-3-methylbenzamide] | 720 |

Continued by falling EC50, values first:

| EC50 [nM] | SMILES |
| --- | --- |
| 1650 | CCCC(CCC)NC(=O)c1ccc2c(c1)CCO2 [Example A52, N-(heptan-4-yl)-2,3-dihydrobenzofuran-5-carboxamide] |
| 1580 | CCCOC(=O)[C@@H](CC(C)C)NC(=O)c1ccc2c(c1)OCO2 [Example A51, (R)-propyl 2-(benzo[d][1,3]dioxole-5-carboxamido)-4-methylpentanoate] |
| 1540 | CCCC(NC(=O)c1ccc2c(c1)OCO2)C(=O)OC (centres unmarked) [Example A49, 2-[(Benzo[1,3]dioxole-5-carbonyl)-amino]-pentanoic acid methyl ester] |
| 700 | COc1cccc(C(=O)N[C@H]2CCCc3ccccc32)c1O [Example A93, (S)-2-hydroxy-3-methoxy-N-(1,2,3,4-tetrahydronaphthalen-1-yl)benzamide] |
| 610 | CCCC(CCC)NC(=O)c1cccc(OC)c1 [Example A90, N-(heptan-4-yl)-3-methoxybenzamide] |
| 600 | COc1ccc([C@@H](C)NC(=O)c2ccc(OC)c(Cl)c2)cc1 [Example A89, (R)-3-chloro-4-methoxy-N-(1-(4-methoxyphenyl)ethyl)benzamide] |
| 540 | COc1cccc(C(=O)NC2CCCc3ccccc32)c1O (centres unmarked) [Example A87, 2-hydroxy-3-methoxy-N-(1,2,3,4-tetrahydronaphthalen-1-yl)benzamide] |
| 530 | COC(=O)[C@@H](CC(C)C)NC(=O)c1cc(C)cc(C)c1 [Example A85, (R)-methyl 2-(3,5-dimethylbenzamido)-4-methylpentanoate] |
| 500 | CCCC(CC)NC(=O)c1ccc(C)c(SC)c1 (centres unmarked) [Example A81, N-(hexan-3-yl)-4-methyl-3-(methylthio)benzamide] |
| 470 | CCCC(C)NC(=O)c1ccc(OC)c(Cl)c1 (centres unmarked) [Example A80, 3-chloro-4-methoxy-N-(pentan-2-yl)benzamide] |
| 460 | CCCC(CCC)NC(=O)c1ccc(OC)cc1 [Example A79, N-(heptan-4-yl)-4-methoxybenzamide] |
| 400 | COc1ccc(C(=O)NC(C)CCc2ccccc2)cc1C (centres unmarked) [Example A76, 4-methoxy-3-methyl-N-(4-phenylbutan-2-yl)benzamide] |
| 350 | CCCC(CCC)NC(=O)c1ccc(OC)c(F)c1 [Example A74, 3-fluoro-N-(heptan-4-yl)-4-methoxybenzamide] |
| 320 | COC(=O)[C@@H](CC(C)C)NC(=O)c1ccc(C)cc1 [Example A69, (R)-methyl 4-methyl-2-(4-methylbenzamido)pentanoate] |
| 290 | COc1ccc(CNC(=O)c2ccncc2-n2cccc2)c(OC)c1 [Example A66, N-(2,4-dimethoxybenzyl)-3-(1H-pyrrol-1-yl)isonicotinamide] |
| 250 | COC(=O)[C@@H](CC(C)C)NC(=O)c1ccc(OC)c(C)c1 [Example A63, (R)-methyl 2-(4-methoxy-3-methylbenzamido)-4-methylpentanoate] |
| 200 | CCC(NC(=O)c1ccc(OC)c(C)c1)C(C)C (centres unmarked) [Example A58, 4-methoxy-3-methyl-N-(2-methylpentan-3-yl)benzamide] |
| 200 | CCCC(NC(=O)c1ccc(OC)c(C)c1)C(C)C (centres unmarked) [Example A59, 4-methoxy-3-methyl-N-(2-methylhexan-3-yl)benzamide] |
| 200 | CCSc1ccc(C(=O)N[C@H](CC(C)C)C(=O)OC)cc1 [Example A60, (R)-methyl 2-(4-(ethylthio)benzamido)-4-methylpentanoate] |
| 180 | C=Cc1ccc(C(=O)N[C@H](CC(C)C)C(=O)OC)cc1 [Example A57, (R)-methyl 4-methyl-2-(4-vinylbenzamido)pentanoate] |
| 120 | CCCC(CC)NC(=O)c1ccc(SC)c(C)c1 (centres unmarked) [Example A54, N-(hexan-3-yl)-3-methyl-4-(methylthio)benzamide] |

From patent US20060045953A1 (priority 2004, published 2006)
